Our source for the binding constant values is PMC13441234 (2025).

The test system of test [1] is Phenylalanine aptamer (on 8 nm SiO2 blocking layer) (DNA, aptamer) CGACCGCGTTTCCCAAGAAAGCAAGTATTGGTTGGTCG
In words: square wave voltammetry, electrochemical aptamer sensor. As to conditions: 1x PBS, room temperature, 300 Hz, 50 mV amplitude, apparent, immobilised aptamer, n = 3 electrodes.

The subject of test [2] is Phenylalanine aptamer (on gold with alkylthiolate/MCH blocking layer) (DNA, aptamer) CGACCGCGTTTCCCAAGAAAGCAAGTATTGGTTGGTCG
The description is as above. As to conditions: 1x PBS (cation concentrations not given); apparent; 300 Hz; immobilised aptamer; whether own (Figure A2) or literature value not explicit.

As for `N[C@@H](Cc1ccccc1)C(=O)O`, the binding constant is 12 µM in test [1] and 400 µM in test [2].
